≈ marks a conversion by molar mass, not a printed value. Where “and” joins values, the source holds several entries; their conditions need not be identical. Equal entries are not always repeated. Where two headings read alike, the source gives them in different places.
Experiments:
RPMI8226 myeloma cells = assay: Pulse exposure, washout and cell count; type: cell-based, human; details: for Cell death after pulse exposure: 24 hrs exposure
[1] = tested on: paclitaxel resistant human lung carcinoma A549/Taxol xenograft; assay: A549/Taxol xenograft in nude mice
HS-5 = assay: XTT cell growth inhibition, HS-5; type: cell-based; details: Homo sapiens
Ovarian cancer lines = assay: XTT cell growth inhibition, ovarian cancer lines (mean); type: cell-based; details: Homo sapiens, read-out: Mean IC50, ovarian lines
[2] = tested on: human mammary carcinoma MX-1 xenograft; details: mouse, in vivo
caspase 3 = assay: Caspase 3 activation by Western blot; type: cell-based, human; details: myeloma cells
Description: It is not clear whether caspase is involved in this process. Firstly, we investigated the activation of caspase 3, an effector caspase in the caspase pathway, in myeloma cells, by Western blot. […] Immunohistochemical staining of CAG myeloma cells using antibody specific to cleaved caspase-3 was used to show cytoplasmic and perinuclear localization features in apoptotic cells. […] Secondly, we attempted to assay the activity of caspase 8 and 9, initiator caspase in the caspase pathway, by fluorometric method. […] Note that increased caspase 9 activity was more prominent than caspase 8. The signals triggering the activation of caspase 8 or 9 are actively under investigation.

[3] = tested on: Human marrow stromal cell lines, HS-27A and HS-5; assay: XTT cell proliferation, normal stromal cells; details: read-out: IC50, stromal lines HS-27A and HS-5
Description: Human marrow stromal cell lines, HS-27A and HS-5 immortalized by E6/E7 genes, have normal marrow stromal function, which support stem cell self-renewal, and proliferation.

[4] = tested on: human colon carcinoma HCT-116 xenograft; details: 96 h
[5] = tested on: lymphoma lines (SKIDLBCL and RL); assay: XTT cell proliferation, lymphoma lines; type: cell-based, human
RL = assay: XTT cell growth inhibition, RL; type: cell-based; details: Homo sapiens, read-out: IC50 (nM), RL
IGROV = assay: XTT cell growth inhibition, IGROV; type: cell-based; details: Homo sapiens, read-out: IC50 (nM), IGROV
[6] = tested on: myeloma cell lines (RPMI8226, CAG); assay: XTT cell proliferation, myeloma cell lines; type: cell-based, human; details: for IC50: Homo sapiens, RPMI-8226, read-out: IC50, myeloma cell lines (RPMI8226, CAG)
CAG = assay: XTT cell growth inhibition, CAG; type: cell-based; details: Homo sapiens, read-out: IC50 (nM), CAG
HT-29 = assay: XTT cell growth inhibition, HT-29; type: cell-based; details: Homo sapiens
[7] = tested on: human T-cell lymphoblastic leukemia CCRF-CEM/Taxol xenograft; assay: CCRF-CEM/Taxol xenograft in nude mice; type: in vivo
SKI-DLBCL = assay: XTT cell growth inhibition, SKI-DLBCL; type: cell-based; details: Homo sapiens; Lymphoma; XTT tetrazonium assay
OPM-2 = assay: XTT cell growth inhibition, OPM-2; type: cell-based; details: Homo sapiens
MRC-5 = assay: XTT cell growth inhibition, MRC-5; type: cell-based, human
[8] = tested on: paclitaxel resistant human lung carcinoma A549/Taxol xenograft; details: 20 mg/kg
in vitro = details: mouse, plasma
Method: Stability of epothilones in mouse and in human liver S9 fraction. The stability study was carried out with a fully automated HPLC system which consisted of a Prospekt-2 (Spark Holland, Netherlands) sample preparation system and an Agilent 1100 HPLC system. Briefly, the Prospekt 2 picked up a C8 extraction cartridge and washed it with acetonitrile and water. The Agilent autosampler, set at 37° C., picked up 20 μl of the sample, loaded it onto the cartridge, washed it with water, then the Prospekt-2 diverted the mobile phase stream through the extraction cartridge onto the analytical column, Reliance Stable Bond C8 4×80 mm with guard column (MacMod, Chadds Ford, Pa.) and the eluent was monitored at 250 nm. […] Sample preparation involved the addition of equal volumes of plasma to PBS for a total volume of 300-400 μl, filtered, and the addition of 0.5-2 μl of the substrate (20 mM) to achieve about 30-50 mAU at 250 nm in the HPLC analysis. For pooled human liver microsome S9 fraction (Xeno Tech, Lenex, Kans.), 20 μl (400 μg) or S9 fraction was mixed with 280 μl of PBS then proceeded as above. The sampling period was controlled by the autosampler and peak area data were collected to compare the rate of disappearance of the parent compound.
Stability of epothilones in mouse and in human liver S9 fraction: The stability study was carried out with a fully automated HPLC system which consisted of a Prospekt-2 (Spark Holland, Netherlands) sample preparation system and an Agilent 1100 HPLC system. Briefly, the Prospekt 2 picked up a C8 extraction cartridge and washed it with acetonitrile and water. The Agilent autosampler, set at 37° C., picked up 20 μl of the sample, loaded it onto the cartridge, washed it with water, then the Prospekt-2 diverted the mobile phase stream through the extraction cartridge onto the analytical column, Reliance Stable Bond C8 4×80 mm with guard column (MacMod, Chadds Ford, Pa.) and the eluent was monitored at 250 nm. […] Sample preparation involves the addition of equal volumes of plasma to PBS for a total volume of 400 μl, filtered, and the addition of 0.5-2 μl of the substrate (20 mM) to achieve about 30-50 mAU at 250 nm in the HPLC analysis. For pooled human liver microsome S9 fraction (Xeno Tech, Lenex, Kans.), 20 μl (400 μg) or S9 fraction was mixed with 280 μl of PBS then proceeds as above. The sampling period was controlled by the autosampler and peak area data were collected to compare the rate of disappearance of the parent compound.

MDA MB435 = assay: XTT cell growth inhibition, MDA MB435; type: cell-based; details: Homo sapiens
CCRF-CEM/Taxol = type: cell-based, human; details: Homo sapiens, CCRF-CEM
[9] = Octanol-water partition (POW) number by HPLC; type: physicochemical; details: HPLC estimate, pH 7.4 buffer; read-out: Lipophilicity octanol/water partition (POW)
Method: Determination of partition of octanol-water (POW) number. An HPLC method is used to estimate octanol-water partition. An Agilent 1100 HPLC system is used with an eclipse XDB C18 column 4.6×250 mm with a mobile phase of 60% acetonitrile/40% 25 mM potassium phosphate buffer at pH 7.4 with a flow rate of 0.8 ml per min. and the eluent is monitored at 250 nm. The standards used are benzyl alcohol, acetophenone, benzophenone, naphthalene, diphenyl ether and dibenzyl with known POW of […] respectively. Sodium dichromate is used to evaluate time zero which is 2.5 min and the retention times for the standards are 3.9, 5.4, 10.6, 14, 18.7 and 19.8 min, respectively. The k value is calculated by the formula of k=(trt−t0)/t0. Linear regression of log k vs. log POW gives a straight line with r^2=0.966. This graph is used to evaluate the POW value of the epothilone analogs.

Ovcar-3 = assay: XTT cell growth inhibition, Ovcar-3; type: cell-based; details: Homo sapiens
[10] = tested on: human lung carcinoma xenograft (A549); assay: A549 xenograft in nude mice; details: for Tumor eradication: 29: after two more doses, dEpoB: 30 mg/kg, Q2Dx6
Solubility in water = details: water
HS-27A = assay: XTT cell growth inhibition, HS-27A; type: cell-based; details: Homo sapiens, read-out: IC50 (nM), HS-27A
SKOV3 = assay: XTT cell growth inhibition, SKOV3; type: cell-based; details: Homo sapiens

SMILES: C/C(=C\c1csc(C)n1)[C@@H]1C/C=C(/C(F)(F)F)C/C=C/[C@H](C)[C@H](O)[C@@H](C)C(=O)C(C)(C)[C@@H](O)CC(=O)O1 [Compound 29, 26-trifluoro-trans-9,10-dehydro-12,13-desoxyepothilone B]
- Decrease of the number of cells from input (RPMI8226 myeloma cells): ~50%
- Decrease of tumor cell numbers (RPMI8226 myeloma cells): 50%
- Cell death after pulse exposure (RPMI8226 myeloma cells): all cells being dead by 48 hrs
- Body weight recovery upon suspension of drug treatment, % of the pretreatment control ([1]; 20 mg/kg): 90%
- Maximal body weight decrease ([1]; 20 mg/kg): 24%
- Tumor growth suppression ([1]; 29: 20 mg/kg, 28: 4 mg/kg): totally suppressed
- IC50 (HS-5; HS5, Marrow stroma, XTT tetrazonium assay, read-out: IC50 (nM), HS-5): 96 ± 7 nM
- IC50 (Ovarian cancer lines): 1.6 nM
- Maximal body weight decrease [2]: Only minor loss of body weight
- Maximal drop of the body weight ([2]; po, 30 mg/kg): 15%
- Cleaved caspase 3 (Western blot) (caspase 3): increased 17 kd cleaved caspase 3
- IC50 [3]: 90 to 100 nM
- Cell kill [4]: > 11.6 log
- Inhibitory doses in two NHL lines relative to doses effective in MM [5]: 5-10 fold
- IC50 ([5]; Homo sapiens, XTT): 60 to 80 nM
- IC50 (RL; Lymphoma, XTT tetrazonium assay): 80 ± 11 nM
- IC50 (IGROV; Ovarian Ca, XTT tetrazonium assay): 2 ± 1.2 nM
- Potency relative to dEpoB on MM cell lines [6]: ~5 fold
- IC50 [6]: 7.6 to 36.7 nM
- IC50 (CAG; Myeloma, XTT tetrazonium assay): 12 ± 1.8 nM
- IC50 (HT-29; HT-29, Colon Ca, XTT tetrazonium assay, read-out: IC50 (nM), HT-29): 4 ± 1.7 nM
- Final tumor suppression on D34 ([7]; 15 mg/kg): 98.8%
- Tumor disappearance (mice) ([7]; 15 mg/kg, 6 hr-i.v. infusion, Q2Dx7 then Q2Dx5): 1 out of 4
- Tumor disappearance (mice) ([7]; 15 mg/kg, 6 hr-i.v. infusion, Q2Dx7 then Q2Dx5, listed as 26-F3-9,10-deH-dEpo B): 1/3
- Tumor disappearance (mice) ([7]; 15 mg/kg, 6 hr-i.v. infusion, Q2Dx7 then Q2Dx5, listed as Fludelone): 1/3
- Tumor disappearance (mice) ([7]; 30 mg/kg Q2Dx7, 6 hr-i.v. infusion (first cycle)): 2 out of 4
- Tumor disappearance (mice) ([7]; 30 mg/kg, 6 hr-i.v. infusion, Q2Dx7 then Q2Dx5, listed as 26-F3-9,10-deH-dEpo B): ¾
- Tumor disappearance (mice) ([7]; 30 mg/kg, 6 hr-i.v. infusion, Q2Dx7 then Q2Dx5, listed as Fludelone): 3 out of 4 and 3/4
- Final tumor suppression ([7]; 30 mg/kg, Q2Dx7 then Q2Dx5): 99.8%
- IC50 (SKI-DLBCL): 60 ± 4.2 nM
- IC50 (OPM-2; OPM-2, Myeloma, XTT tetrazonium assay, read-out: IC50 (nM), OPM-2): 8.2 ± 2.2 nM
- IC50 (MRC-5; MRC5, Embryonic lung fibroblasts (human), XTT tetrazonium assay, read-out: IC50 (nM), MRC-5): 7.4 ± 2.7 nM
- Tumor reduction, % of the pretreatment control [8]: 24.4%
- half-life (in vitro): 3.53 ± 1.47 h
- IC50 (MDA MB435; MDA-MB-435, Breast Ca, XTT tetrazonium assay, read-out: IC50 (nM), MDA MB435): 5.8 ± 2.8 nM
- IC50 (CCRF-CEM/Taxol; XTT assay following 72 h inhibition, Table 1-2, read-out: IC50 (μM), CCRF-CEM/Taxol): 0.0057 µM
- IC50 (CCRF-CEM/Taxol; XTT assay following 72 h inhibition, Table 1-3, read-out: IC50, C/Taxol): 0.0057 µM
- chromatographic logP [9]: 3.3
- IC50 (Ovcar-3; OVCAR-3, Ovarian Ca, XTT tetrazonium assay, read-out: IC50 (nM), Ovcar-3): 1.1 ± 0.4 nM
- Body weight decrease without lethality ([10]; 25 mg/kg, Q2DX6, twice): ≤ 35%
- Tumor eradication [10]: 4 of the 4
- solubility (Solubility in water): 20 µg/mL (≈ 36.8 µM)
- IC50 (HS-27A; Marrow stroma, XTT tetrazonium assay): 102 ± 8 nM
- IC50 (SKOV3; SK-OV-3, Ovarian Ca, XTT tetrazonium assay, read-out: IC50 (nM), SKOV3): 1.6 ± 0.5 nM

SMILES: C/C1=C/CC(/C(C)=C/c2csc(C)n2)OC(=O)C[C@H](O)C(C)(C)C(=O)[C@H](C)[C@@H](O)[C@@H](C)CCC1 (stereo partly shown) [Compound 1, 12,13-desoxyepothilone B, reference compound]
- Decrease of the number of cells from input (RPMI8226 myeloma cells; 4-8 hrs exposure, washout, incubation up to 48 hrs): slowed cell expansion
- Cell death after pulse exposure (RPMI8226 myeloma cells): all cells being dead by 48 hrs
- Decrease of tumor cell numbers (RPMI8226 myeloma cells; one hour exposure, washout, 48 hrs): reduced but did not prevent tumor cell expansion
- IC50 (HS-5; HS5, read-out: IC50 (nM), HS-5): 100 ± 8 nM
- IC50 (Ovarian cancer lines): 16.5 nM
- Decrease in body weight without lethality [2]: 31%
- Cleaved caspase 3 (Western blot) (caspase 3): increased 17 kd cleaved caspase 3
- IC50 [3]: 90 to 100 nM
- IC50 (RL): 90 ± 11 nM
- IC50 (IGROV): 15 ± 3.8 nM
- IC50 [6]: 36.7 to 61.3 nM
- IC50 (CAG): 61.3 ± 4.2 nM
- IC50 (HT-29; HT-29, read-out: IC50 (nM), HT-29): 7.2 ± 2.2 nM
- IC50 (SKI-DLBCL): 72 ± 9.8 nM
- IC50 (OPM-2; OPM-2, read-out: IC50 (nM), OPM-2): 38.9 ± 3.3 nM
- IC50 (MRC-5; Homo sapiens, MRC5, read-out: IC50 (nM), MRC-5): 8.2 ± 4.3 nM
- IC50 (MDA MB435; MDA-MB-435, read-out: IC50 (nM), MDA MB435): 7.8 ± 4.2 nM
- IC50 (CCRF-CEM/Taxol; 72 h, read-out: IC50 (μM), CCRF-CEM/Taxol): 0.0057 µM
- IC50 (CCRF-CEM/Taxol; 72 h, read-out: IC50, C/Taxol (μM)): 0.0046 µM
- IC50 (CCRF-CEM/Taxol; 72 h, read-out: IC50, CCRF-CEM/Taxol): 0.0046 µM
- chromatographic logP [9]: 4.4
- IC50 (Ovcar-3; OVCAR-3, read-out: IC50 (nM), Ovcar-3): 14 ± 3.6 nM
- Tumor eradication [10]: no tumor eradication
- solubility (Solubility in water): 9.4 µg/mL (≈ 19.1 µM)
- IC50 (HS-27A): 100 ± 10 nM
- IC50 (SKOV3; SK-OV-3, read-out: IC50 (nM), SKOV3): 13 ± 4.7 nM
